Source: US6933316B2, “Indole compounds” (National Health Research Institutes, priority 2001, dated 2005)

Tests used:
angiogenesis = details: cited from earlier work
[1] = tested on: colchicine binding site on tubulin; details: compared with colchicine; cited from earlier work
[2] = tested on: human cancer cells, including multi-drug resistant cancer cells; details: wide variety of human cancer cells; cited from earlier work
[3] = cited from earlier work
KB cell line = assay: Cell growth inhibition assay on human cancer lines, parental KB; type: cell-based; details: cell type Oral, read-out: Cytotoxicity against KB
Experimental: (§1) Cell Growth Inhibition Assay: MCF-7 breast carcinoma cells were maintained in plastic dishes in DMEM medium supplemented with 10% fetal bovine serum. For in vitro treatment, tumor cells were seeded in […] of culture medium/well in 96-well plates to a final cell density of 6×10^3 cell/mL and incubated in a CO2 incubator at 37° C. for 24 h. The cells were treated with at least five different concentrations of a test indole compound, and incubated in a CO2 incubator at 37° C. for 72 h. The number of viable cells was estimated using MTS assay and absorbance was measured at 490 nm. Cytotoxicity of the test compounds was expressed in terms of IC50 values. The values presented represent averages of three independent experiments, each with duplicate samples.
(§2) Cell Growth Inhibition Assay on Multiple-drug Resistant Human Cancer Lines: Indole compounds were tested against several panels of drug-resistant cell lines. It is well known that several anti-mitotic agents, including vinca alkaloid (vincristine, vinblastine) and taxol, have been introduced in clinic to treat various human cancers. […] The mechanisms responsible for taxol resistance include overexpression of p-glycoprotein and mutation of tubulin. For comparison, […] anti-mitotic agents, i.e., Vincristine, VP-16, Cisplatin, CPT (camptothecin), and Taxol (paclitaxel) were also tested against several panels of drug-resistant cell lines. […]

HONE-1 cell line = assay: Cell growth inhibition assay on human cancer lines, parental HONE-1; type: cell-based; details: NPC, read-out: Cytotoxicity against HONE-1
Experimental: as §1, §2

| SMILES | Anti-angiogenesis activity (angiogenesis) | Affinity for the colchicine binding site on tubulin relative to colchicine [1] | Cytotoxicity against human cancer cells [2] | Water-solubility [3] | IC50 (KB cell line) [nM] | IC50 (HONE-1 cell line) [nM] |
| --- | --- | --- | --- | --- | --- | --- |
| COc1ccc(/C=C\c2cc(OC)c(OC)c(OC)c2)cc1O [CA-4, combretastatin A-4] | anti-angiogenesis activity | higher affinity for the colchicine binding site on tubulin than colchicine itself | strong cytotoxicity | low water-solubility | – | – |
| N.N.[Cl][Pt][Cl] [Cisplatin] | – | – | – | – | 3 | 3000 |
